Source: patent US20100048575A1, “NOVEL TETRACYCLIC INHIBITORS OF CYSTEINE PROTEASES, THE PHARMACEUTICAL COMPOSITIONS THEREOF AND THEIR THERAPEUTIC APPLICATIONS” (priority 2006, published 2010)

These molecules were tested against T1, USP8 (Homo sapiens, UniProt P40818) (assay: USP8 activity assay (Ub-AMC)). Conditions: 400 nM Ub-AMC, 630 pM enzyme, pH8.8, 30 min pre-incubation, 60 min at 37° C., sigmoidal fit; read-out: USP8 (inhibition of cysteine protease activity).
T1 construct: His tag (from vector pFastBac-HT) (N); made in house; host or cells: insect cells (Sf9 or High Five), baculovirus
T1 sequence (P40818 1-1118): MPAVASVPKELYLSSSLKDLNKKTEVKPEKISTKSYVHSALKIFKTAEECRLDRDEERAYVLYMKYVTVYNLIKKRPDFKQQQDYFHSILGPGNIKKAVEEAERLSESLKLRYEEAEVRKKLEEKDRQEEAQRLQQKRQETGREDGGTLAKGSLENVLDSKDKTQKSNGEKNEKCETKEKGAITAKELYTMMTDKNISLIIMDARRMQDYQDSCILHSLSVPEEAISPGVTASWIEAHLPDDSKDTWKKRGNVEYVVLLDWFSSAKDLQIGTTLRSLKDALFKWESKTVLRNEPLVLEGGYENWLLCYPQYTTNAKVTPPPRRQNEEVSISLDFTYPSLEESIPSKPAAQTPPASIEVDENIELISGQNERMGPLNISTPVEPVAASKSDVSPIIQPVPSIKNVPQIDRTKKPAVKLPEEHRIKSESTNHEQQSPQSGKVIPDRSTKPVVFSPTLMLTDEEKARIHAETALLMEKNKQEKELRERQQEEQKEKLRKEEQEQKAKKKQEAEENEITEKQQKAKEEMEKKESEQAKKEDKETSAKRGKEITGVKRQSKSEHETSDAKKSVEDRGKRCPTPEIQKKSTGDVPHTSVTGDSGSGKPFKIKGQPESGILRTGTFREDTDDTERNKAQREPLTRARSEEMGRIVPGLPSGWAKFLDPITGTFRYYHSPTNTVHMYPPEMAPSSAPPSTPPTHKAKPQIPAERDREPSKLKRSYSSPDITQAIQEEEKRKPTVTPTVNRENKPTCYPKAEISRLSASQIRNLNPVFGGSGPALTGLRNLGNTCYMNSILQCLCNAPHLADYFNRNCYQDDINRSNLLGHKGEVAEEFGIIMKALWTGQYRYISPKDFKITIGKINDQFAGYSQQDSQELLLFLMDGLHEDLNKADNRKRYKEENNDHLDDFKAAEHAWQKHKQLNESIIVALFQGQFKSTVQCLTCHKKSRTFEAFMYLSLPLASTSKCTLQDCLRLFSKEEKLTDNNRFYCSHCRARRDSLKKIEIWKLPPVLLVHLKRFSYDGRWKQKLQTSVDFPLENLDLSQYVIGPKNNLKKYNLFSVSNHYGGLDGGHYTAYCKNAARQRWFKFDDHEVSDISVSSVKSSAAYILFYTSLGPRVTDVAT
Assay type: biochemical
Excerpt: The cDNA encoding USP8 was obtained by PCR amplification from placenta mRNA. USP8 cDNA was subcloned by PCR into a baculovirus expression vector (pFastBac-HT; Invitrogen). A cDNA encoding a mutated USP8 was generated by mutagenic PCR. The corresponding protein encodes a cysteine to alanine substitution at residue 786. The sequences were ascertained by sequencing of the entire open reading frame. Bacmids encoding […] were generated following. DH10bac transposition. The corresponding bacmids were transfected into insect cells (Sf9). Viruses were recovered from culture supernatant and amplified twice. Insect cells (Sf9 or High Five; Invitrogen) were infected for 72 hours. Total cell lysates were harvested and lyzed in lysis buffer (Tris HCl 50 mM pH7.6; 0.75% NP40; 500 mM NaCl; 10% glycerol; 1 mM DTT; 10 mM imidazole; Protease Inhibitor Cocktail; AEBSF 20 μg.ml^−1; Aprotinin 10 μg.ml^−1). Proteins were affinity purified on metal affinity resins (Talon Metal affinity resin; BD Biosciences). Bound materials were extensively washed in wash buffer (50 mM Sodium Phosphate pH 7.0; 300 mM NaCl; 10 mM imidazole; 0.5% Triton X-100; 10% glycerol) and eluted from the resin in 250 mM imidazole-containing wash buffer. Proteins were dialyzed in dialysis buffer (Tris HCl pH 7.6 20 mM; NaCl 200 mM; DTT 1 mM; EDTA 1 mM; 10% Glycerol). Proteins purifications were analyzed on 4-12% NuPAGE (Invitrogen).
USP8 was diluted in USP buffer (50 mM Tris HCl; 0.5 mM EDTA; 5 mM DTT; 0.01% Triton X-100; Bovine Serum Albumin 0.05 mg.ml^−1 pH8.8). Compounds stocks (100 mM) were stored at −20° C. in DMSO.
Reactions were performed as duplicates in Black LJL 96 well plates (HE microplates; Molecular Devices; 20 μl final reaction volume). The substrate concentration for USP8 was 400 nM Ub-AMC (Boston Biochem). The concentrations of the enzyme (USP8) in specificity assays was 630 pM. The concentrations were determined in order to perform specificity assays under initial velocities at fixed substrate concentration. Compounds were pre-incubated with enzymes for 30 minutes at 25° C. Reactions were initiated by addition of substrate to the plates containing the enzymes (+/−compounds) diluted in assay buffer. Reactions were incubated for 60 minutes at 37° C. Reactions were stopped by adding acetic acid (100 mM final). Readings were performed on a Pherastar Fluorescent Reader (BMG). λ Emission 380 nm; λ Excitation=460 nm. Data (mean values +/−standard deviation) were analyzed as % of control (no compound) and plotted as percentage versus the Log of the compound concentration using GraphPad (Prism). Data were fitted to a sigmoidal model (variable slope).
For CON=C1c2ccccc2-c2nn3c(C)nnc3nc21 (mixture of isomers) [5a, 3-Methyl-1,2,3a,4,10-pentaaza-cyclopenta[b]fluoren-9-one O-methyl-oxime], the IC50 was 580 nM. C=CCON=C1c2ccccc2-c2nn3c(C)nnc3nc21 (mixture of isomers) [5b, 3-Methyl-1,2,3a,4,10-pentaaza-cyclopenta[b]fluoren-9-one O-allyl-oxime] showed an IC50 of 355 nM. C=CCON=C1c2ccccc2-c2nn3c(CCCC)nnc3nc21 (mixture of isomers) [5d, 3-Butyl-1,2,3a,4,10-pentaaza-cyclopenta[b]fluoren-9-one O-allyl-oxime] was tested, and the IC50 was 565 nM. CCCCCCCCCCON=C1c2ccccc2-c2nn3nnnc3nc21 (mixture of isomers) [8a, 1,2,3,3a, 4,10-Hexaaza-cyclopenta[b]fluoren-9-one O-decyl-oxime] gave an IC50 of 27800 nM. For c1ccc(OCCCON=C2c3ccccc3-c3nn4nnnc4nc32)cc1 (mixture of isomers) [8c, 1,2,3,3a,4,10-Hexaaza-cyclopenta[b]fluoren-9-one O-(3-phenoxy-propyl)-oxime], the IC50 was 225 nM. With CCc1nnc2nc3c(nn12)-c1ccccc1C3=NOC (mixture of isomers) [10b, 3-Ethyl-1,2,3a,4,10-pentaaza-cyclopenta[b]fluoren-9-one O-methyl-oxime] the IC50 was 528 nM. Molecule CCON=C1c2ccccc2-c2nn3c(CC)nnc3nc21 (mixture of isomers) [10d, 3-Ethyl-1,2,3a,4,10-pentaaza-cyclopenta[b]fluoren-9-one O-ethyl-oxime] has an IC50 of 381 nM. C=CCON=C1c2ccccc2-c2nn3c(CC)nnc3nc21 (mixture of isomers) [10f, 3-Ethyl-1,2,3a,4,10-pentaaza-cyclopenta[b]fluoren-9-one O-allyl-oxime] was tested, and the IC50 was 342 nM. CCc1nnc2nc3c(nn12)-c1ccccc1C3=NOCc1ccccc1 (mixture of isomers) [10h, 3-Ethyl-1,2,3a,4,10-pentaaza-cyclopenta[b]fluoren-9-one O-benzyl-oxime] was tested, and the IC50 was 807 nM.
